Results as given in PMC8296573, “Synthesis and Biological Evaluation of Fingolimod Derivatives as Antibacterial Agents” (ACS Omega, 2021).
Values after ≈ are worked out from the molar mass of the structure shown. Like-named read-outs stand apart in the source and are kept apart here. Marks after values point to notes of the source that are not given here.

How the values were obtained:
[1] = test system: P. aeruginosa ATCC 9027; test: Antibacterial activity, pre-exposure; assay type: cell-based, Pseudomonas aeruginosa; conditions: for Average inhibition %, biofilms viability / Average inhibition %, planktonic cells viability / inhibition at 50 µM / inhibition at 100 µM / inhibition at 150 µM / inhibition at 200 µM: P. aeruginosa ATCC 9027, pre-exposure, ± SD; for inhibition at 50 µM / inhibition at 100 µM / inhibition at 150 µM / inhibition at 200 µM: ATCC9027
Summary of the method: (§1)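 Growth prevention was tested by adding compounds together with the inoculum. Plates were incubated 18 h at 37 °C. Viability was read by resazurin fluorescence and biomass by crystal violet absorbance at 595 nm.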

[2] = test system: A. baumannii NCTC 13423; test: Antibacterial activity, pre-exposure; assay type: cell-based, Acinetobacter baumannii; conditions: for Average inhibition %, biofilms viability / Average inhibition %, planktonic cells viability / inhibition at 10 µM / inhibition at 15 µM / inhibition at 25 µM / inhibition at 50 µM: A. baumannii NCTC 13423, pre-exposure, ± SD
Summary of the method: as §1

[3] = test system: S. aureus ATCC 25923; test: Antibacterial activity, pre-exposure (planktonic cells and biofilm formation); assay type: cell-based, Staphylococcus aureus; conditions: for inhibition at 5 µM / inhibition at 10 µM / inhibition at 15 µM / inhibition at 25 µM / Average inhibition %, biofilms viability / Average inhibition %, planktonic cells viability: pre-exposure, ± SD
Summary of the method: as §1

[4] = test system: S. aureus ATCC 25923; test: Antibacterial activity, post-exposure on preformed 18-h-old biofilms; assay type: cell-based, Staphylococcus aureus; conditions: ± SD; for inhibition at 25 µM / inhibition at 50 µM / inhibition at 100 µM / inhibition at 200 µM: Staphylococcus aureus; for inhibition at 25 µM: ATCC25923, 25 µM; for inhibition at 50 µM: ATCC25923, 50 µM; for inhibition at 100 µM: ATCC25923, 100 µM; for inhibition at 200 µM: ATCC25923, 200 µM
Summary of the method: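 Biofilms grown 18 h without compound, medium then replaced and compound added for a further 24 h. Planktonic OD and resazurin (20 μM final) fluorescence (ex 560/em 590 nm) read; washed biofilms stained with 20 μM resazurin 30 min at 37 °C, then ethanol-fixed and crystal violet-stained, absorbance 595 nm.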

[5] = read-out: Average inhibition %, biofilms biomass
[6] = read-out: Average inhibition %, planktonic cells turbidity

MIC ([1]; Pseudomonas aeruginosa, ATCC9027, pre-exposure, Inactive = no activity up to 200 μM, > = some inhibition but no MIC reached, read-out: MIC P. aeruginosa ATCC 9027): > 200 µM
MIC P. aeruginosa ATCC 9027 ([1]; pre-exposure, Inactive = no activity up to 200 μM, > = some inhibition but no MIC reached, listed as Fgd): > 200 ^b μM
MIC ([2]; Acinetobacter baumannii, NCTC13423, pre-exposure, Inactive = no activity up to 50 μM, > = some inhibition but no MIC reached, read-out: MIC A. baumannii NCTC 13423): 25 µM (≈ 7.69 µg/mL)
MIC ([3]; Staphylococcus aureus, ATCC25923, lowest concentration with no visible growth (>90% inhibition of turbidity and viability of planktonic cells), 18 h, read-out: MIC S. aureus ATCC 25923): 15 µM (≈ 4.61 µg/mL)
SMILES: CCCCCCCCc1ccc(CCC(N)(CO)CO)cc1 [fingolimod, Fingolimod]
Average inhibition %, biofilms viability ([1]; 50 µM): 12.4 ± 13.4%
Average inhibition %, planktonic cells viability ([1]; 50 µM): 43.9 ± 35.5%
Average inhibition %, biofilms viability ([1]; 100 µM): 36.5 ± 23.1%
Average inhibition %, planktonic cells viability ([1]; 100 µM): 92.5 ± 4.8%
Average inhibition %, biofilms viability ([1]; 150 µM): 42.4 ± 25.3%
Average inhibition %, planktonic cells viability ([1]; 150 µM): 94.2 ± 3.6%
Average inhibition %, biofilms viability ([1]; 200 µM): 47.5 ± 22.6%
Average inhibition %, planktonic cells viability ([1]; 200 µM): 95 ± 1.2%
inhibition at 50 µM ([1]; Pseudomonas aeruginosa, 50 µM, read-out: Average inhibition %, biofilms biomass): 30.1 ± 16.2%
inhibition at 50 µM ([1]; Pseudomonas aeruginosa, 50 µM, read-out: Average inhibition %, planktonic cells turbidity): 51.5 ± 24%
inhibition at 100 µM ([1]; Pseudomonas aeruginosa, 100 µM, read-out: Average inhibition %, biofilms biomass): 36.9 ± 13.7%
inhibition at 100 µM ([1]; Pseudomonas aeruginosa, 100 µM, read-out: Average inhibition %, planktonic cells turbidity): 85.9 ± 3.6%
inhibition at 150 µM ([1]; Pseudomonas aeruginosa, 150 µM, read-out: Average inhibition %, biofilms biomass): 40.7 ± 17.8%
inhibition at 150 µM ([1]; Pseudomonas aeruginosa, 150 µM, read-out: Average inhibition %, planktonic cells turbidity): 86.8 ± 3.4%
inhibition at 200 µM ([1]; Pseudomonas aeruginosa, 200 µM, read-out: Average inhibition %, biofilms biomass): 45.4 ± 18.5%
inhibition at 200 µM ([1]; Pseudomonas aeruginosa, 200 µM, read-out: Average inhibition %, planktonic cells turbidity): 85.1 ± 3.8%
Average inhibition %, biofilms viability ([2]; 10 µM): 0.2 ± 0.5%
Average inhibition %, planktonic cells viability ([2]; 10 µM): 5.9 ± 4.9%
Average inhibition %, biofilms viability ([2]; 15 µM): 63.6 ± 31.5%
Average inhibition %, planktonic cells viability ([2]; 15 µM): 74.1 ± 38.2%
Average inhibition %, biofilms viability ([2]; 25 µM): 97.6 ± 2.3%
Average inhibition %, planktonic cells viability ([2]; 25 µM): 99.5 ± 0.3%
Average inhibition %, biofilms viability ([2]; 50 µM): 98.4 ± 1.1%
Average inhibition %, planktonic cells viability ([2]; 50 µM): 99.4 ± 0.4%
inhibition at 10 µM ([2]; Acinetobacter baumannii, NCTC13423, 10 µM, read-out: Average inhibition %, biofilms biomass): 1.9 ± 3.9%
inhibition at 10 µM ([2]; Acinetobacter baumannii, NCTC13423, 10 µM, read-out: Average inhibition %, planktonic cells turbidity): 0%
inhibition at 15 µM ([2]; Acinetobacter baumannii, NCTC13423, 15 µM, read-out: Average inhibition %, biofilms biomass): 44.1 ± 26.9%
inhibition at 15 µM ([2]; Acinetobacter baumannii, NCTC13423, 15 µM, read-out: Average inhibition %, planktonic cells turbidity): 71.1 ± 37.7%
inhibition at 25 µM ([2]; Acinetobacter baumannii, NCTC13423, 25 µM, read-out: Average inhibition %, biofilms biomass): 79.2 ± 13.4%
inhibition at 25 µM ([2]; Acinetobacter baumannii, NCTC13423, 25 µM, read-out: Average inhibition %, planktonic cells turbidity): 98.8 ± 2%
inhibition at 50 µM ([2]; Acinetobacter baumannii, NCTC13423, 50 µM, read-out: Average inhibition %, biofilms biomass): 84.8 ± 7.8%
inhibition at 50 µM ([2]; Acinetobacter baumannii, NCTC13423, 50 µM, read-out: Average inhibition %, planktonic cells turbidity): 98.5 ± 1.4%
inhibition at 5 µM ([3]; Staphylococcus aureus, ATCC25923, 5 µM, read-out: Average inhibition %, biofilms biomass): 37 ± 11.2%
inhibition at 5 µM ([3]; Staphylococcus aureus, ATCC25923, 5 µM, read-out: Average inhibition %, planktonic cells turbidity): 25 ± 10.6%
inhibition at 10 µM ([3]; Staphylococcus aureus, ATCC25923, 10 µM, read-out: Average inhibition %, biofilms biomass): 42.2 ± 5%
inhibition at 10 µM ([3]; Staphylococcus aureus, ATCC25923, 10 µM, read-out: Average inhibition %, planktonic cells turbidity): 36.7 ± 10%
inhibition at 15 µM ([3]; Staphylococcus aureus, ATCC25923, 15 µM, read-out: Average inhibition %, biofilms biomass): 91.7 ± 6%
inhibition at 15 µM ([3]; Staphylococcus aureus, ATCC25923, 15 µM, read-out: Average inhibition %, planktonic cells turbidity): 99.8 ± 0.1%
inhibition at 25 µM ([3]; Staphylococcus aureus, ATCC25923, 25 µM, read-out: Average inhibition %, biofilms biomass): 90.8 ± 6.9%
inhibition at 25 µM ([3]; Staphylococcus aureus, ATCC25923, 25 µM, read-out: Average inhibition %, planktonic cells turbidity): 99.8 ± 0.1%
Average inhibition %, biofilms viability ([3]; 5 µM): 38.7 ± 5.5%
Average inhibition %, planktonic cells viability ([3]; 5 µM): 16.1 ± 26.5%
Average inhibition %, biofilms viability ([3]; 10 µM): 41.5 ± 7.1%
Average inhibition %, planktonic cells viability ([3]; 10 µM): 17.2 ± 23.4%
Average inhibition %, biofilms viability ([3]; 15 µM): 99.7 ± 0.2%
Average inhibition %, planktonic cells viability ([3]; 15 µM): 99.9 ± 0%
Average inhibition %, biofilms viability ([3]; 25 µM): 99.5 ± 0.1%
Average inhibition %, planktonic cells viability ([3]; 25 µM): 99.9 ± 0.1%
Average inhibition %, biofilms viability ([4]; 25 µM): 19.2 ± 14.5%
Average inhibition %, planktonic cells viability ([4]; 25 µM): 7.8 ± 3.6%
Average inhibition %, biofilms viability ([4]; 50 µM): 35 ± 7%
Average inhibition %, planktonic cells viability ([4]; 50 µM): 2.9 ± 2.6%
Average inhibition %, biofilms viability ([4]; 100 µM): 52.2 ± 12.4%
Average inhibition %, planktonic cells viability ([4]; 100 µM): 48.9 ± 16.2%
Average inhibition %, biofilms viability ([4]; 200 µM): 77.3 ± 19%
Average inhibition %, planktonic cells viability ([4]; 200 µM): 90.5 ± 9.9%
inhibition at 25 µM [4, 5]: 39.7 ± 16.2%
inhibition at 25 µM [4, 6]: 1.1 ± 2%
inhibition at 50 µM [4, 5]: 60.7 ± 12.4%
inhibition at 50 µM [4, 6]: 13.8 ± 11.2%
inhibition at 100 µM [4, 5]: 67.3 ± 9.5%
inhibition at 100 µM [4, 6]: 42.4 ± 7%
inhibition at 200 µM [4, 5]: 71 ± 11%
inhibition at 200 µM [4, 6]: 75.5 ± 11%
